Test results reported in patent US9127005B2, “Isoform selective phospholipase D inhibitors” (Vanderbilt University, priority 2009, dated 2015).

Experiments:
PLD2 [1] = biological target: T1, PLD2 (Homo sapiens (Human), UniProt O14939); experiment: Cellular CRCs: PLD2 response in HEK293gfpPLD2 (293-PLD2) cells; assay type: cell-based; conditions: for Fold Selective: cellular CRCs, selectivity for PLD2 (293-PLD2) over PLD1 (Calu-1)
From the text: In some aspects PLD activity in the cell is mediated predominately by PLD2. Thus, in some aspects, the cell stably overexpresses recombinant PLD2. For example, the cell can be a HEK293 cell stably overexpressing green florescent protein (GFP)-tagged PLD2.

PLD1 [2] = biological target: T2, PLD1 (Homo sapiens (Human), UniProt Q13393); experiment: Cellular CRCs: PLD1 response in Calu-1 cells; assay type: cell-based
T2 sequence (Q13393 whole entry): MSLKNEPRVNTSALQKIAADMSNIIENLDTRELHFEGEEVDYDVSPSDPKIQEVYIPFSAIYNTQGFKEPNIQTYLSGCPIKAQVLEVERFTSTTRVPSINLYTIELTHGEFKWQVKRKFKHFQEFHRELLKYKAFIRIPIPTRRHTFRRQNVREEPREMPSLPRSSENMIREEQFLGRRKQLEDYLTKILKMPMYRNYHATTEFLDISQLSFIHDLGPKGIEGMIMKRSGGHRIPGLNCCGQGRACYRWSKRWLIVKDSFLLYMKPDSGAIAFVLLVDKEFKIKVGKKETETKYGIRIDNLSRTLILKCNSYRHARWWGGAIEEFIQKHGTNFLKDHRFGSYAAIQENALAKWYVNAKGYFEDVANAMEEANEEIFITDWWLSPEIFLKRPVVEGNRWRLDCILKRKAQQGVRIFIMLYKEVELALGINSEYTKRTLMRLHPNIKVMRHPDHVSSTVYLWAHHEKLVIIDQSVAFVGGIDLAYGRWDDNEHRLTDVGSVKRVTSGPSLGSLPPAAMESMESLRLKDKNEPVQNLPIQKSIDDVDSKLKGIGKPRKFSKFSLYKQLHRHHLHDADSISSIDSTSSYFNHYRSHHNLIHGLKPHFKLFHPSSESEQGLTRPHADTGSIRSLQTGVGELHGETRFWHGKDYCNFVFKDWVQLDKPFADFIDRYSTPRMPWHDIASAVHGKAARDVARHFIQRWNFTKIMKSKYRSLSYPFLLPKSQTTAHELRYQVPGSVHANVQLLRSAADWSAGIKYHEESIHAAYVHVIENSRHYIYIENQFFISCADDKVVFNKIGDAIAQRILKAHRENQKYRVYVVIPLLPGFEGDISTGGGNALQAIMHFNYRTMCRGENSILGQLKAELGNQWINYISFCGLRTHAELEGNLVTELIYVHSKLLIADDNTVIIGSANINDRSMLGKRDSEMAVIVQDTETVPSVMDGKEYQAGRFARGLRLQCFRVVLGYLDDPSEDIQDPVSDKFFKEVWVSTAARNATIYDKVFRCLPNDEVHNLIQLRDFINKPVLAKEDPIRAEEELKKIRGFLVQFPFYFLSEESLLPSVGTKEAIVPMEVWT
From the text: In some aspects PLD activity in the cell is mediated predominately by PLD1. Thus, in some aspects, the cell is the human non-small-cell lung cancer (NSCLC) cell line Calu-1. In some aspects, the cell has been stimulated to activate PLD1 in the cell. For example, the cell can be stimulated with phorbol 12-myristate 13-acetate (PMA).

PLD2 [3] = biological target: T1, PLD2; experiment: Exogenous CRCs: in vitro PLD2 response; assay type: biochemical
From the text: (§1) The screening method can comprise providing a sample comprising a phosholipid and a PLD under conditions that allow the hydrolysis of the phospholipids to a phosphatidic acid, contacting the sample with a candidate agent, measuring enzymatic activity, comparing the enzymatic activity to a control, a decrease in enzymatic activity compared to the control identifying an agent that inhibits the PLD.
(§2) In some aspects, the PLD is a myr-Aff-1-stimulated mammalian human PLD1 or human PLD2.

PLD1 [4] = biological target: T2, PLD1; experiment: Exogenous CRCs: in vitro PLD1 response; assay type: biochemical
From the text: as §1, §2

[5] = HEK293 cells overexpressing GFP-tagged PLD2, read-out: Cellular CRCs 293-PLD2 IC50
[6] = Calu-1 cells (PLD1), read-out: Cellular CRCs Calu-1 IC50
[7] = exogenous (in vitro) PLD2, read-out: Exogenous CRCs PLD2 IC50

T1 sequence (O14939 whole entry): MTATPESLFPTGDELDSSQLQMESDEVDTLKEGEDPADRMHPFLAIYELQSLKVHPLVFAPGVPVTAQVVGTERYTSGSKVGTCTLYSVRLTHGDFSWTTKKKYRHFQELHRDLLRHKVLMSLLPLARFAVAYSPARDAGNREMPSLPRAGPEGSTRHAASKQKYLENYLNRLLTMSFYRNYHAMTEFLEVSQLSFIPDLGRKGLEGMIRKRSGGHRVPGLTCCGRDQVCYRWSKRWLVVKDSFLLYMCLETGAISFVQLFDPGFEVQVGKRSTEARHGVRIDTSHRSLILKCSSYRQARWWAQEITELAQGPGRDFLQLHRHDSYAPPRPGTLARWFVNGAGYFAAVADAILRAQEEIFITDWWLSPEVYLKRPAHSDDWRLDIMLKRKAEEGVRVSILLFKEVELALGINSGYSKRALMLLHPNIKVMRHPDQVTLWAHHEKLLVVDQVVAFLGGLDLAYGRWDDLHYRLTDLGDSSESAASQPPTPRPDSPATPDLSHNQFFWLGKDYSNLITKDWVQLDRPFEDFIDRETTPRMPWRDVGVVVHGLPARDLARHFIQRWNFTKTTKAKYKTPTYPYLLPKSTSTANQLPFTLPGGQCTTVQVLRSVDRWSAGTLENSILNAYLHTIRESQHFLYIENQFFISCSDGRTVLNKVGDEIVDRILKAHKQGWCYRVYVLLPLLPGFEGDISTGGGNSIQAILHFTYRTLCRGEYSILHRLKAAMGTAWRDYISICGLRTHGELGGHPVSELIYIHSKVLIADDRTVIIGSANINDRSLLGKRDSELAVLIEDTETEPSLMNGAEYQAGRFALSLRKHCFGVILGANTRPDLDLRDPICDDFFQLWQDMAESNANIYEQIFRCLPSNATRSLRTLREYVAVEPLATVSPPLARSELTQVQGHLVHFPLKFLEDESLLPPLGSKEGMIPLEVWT

C[C@@H](CN1CCC2(CC1)C(=O)NC[C@@H]2c1ccc(F)cc1)NC(=O)C1C[C@H]1c1ccccc1 (stereo partly drawn) [P0A, trans-N-((S)-1-((R)-4-(4-fluorophenyl)-1-oxo-2,8-diazaspiro[4.5]decan-8-yl)propan-2-yl)-2-phenylcyclopropane-carboxamide 2,2,2-trifluoroacetate]
IC50 (PLD2 [1]; [5]): 14000 nM
IC50 (PLD1 [2]; [6]): 600 nM

C[C@@H](CN1CCC2(CC1)C(=O)NC[C@@H]2c1ccc(F)cc1)NC(=O)c1cc2ccccc2[nH]1 [P1G, N-((S)-l-((R)-4-(4-fluorophenyl)-1-oxo-2,8-diazaspiro[4.5]decan-8-yl)propan-2-yl)-1H-indole-2-carboxamide 2,2,2-trifluoroacetate]
IC50 (PLD2 [1]): 12 nM
IC50 (PLD1 [2]): 1 nM

O=C(NCCN1CCC2(CC1)C(=O)NC[C@H]2c1ccc(F)cc1)c1ccc2ccccc2c1.O=C(O)C(F)(F)F [P22, (S)-N-(2-(4-(4-fluorophenyl)-1-oxo-2,8-diazaspiro[4.5]decan-8-yl)ethyl)-2-naphthamide 2,2,2-trifluoroacetate]
IC50 (PLD2 [3]; [7]): 73 nM
IC50 (PLD2 [1]; [5]): 26 nM
Fold Selective (PLD2 [1]; trifluoroacetate): 32-fold PLD2
IC50 (PLD1 [4]): 3900 nM
IC50 (PLD1 [2]; [6]): 820 nM

C[C@@H](CN1CCC2(CC1)C(=O)NCC2c1ccc(F)cc1)NC(=O)C1C[C@H]1c1ccccc1 (stereo partly drawn) [NGQ, trans-N-((S)-1-((S)-4-(4-fluorophenyl)-1-oxo-2,8-diazaspiro[4.5]decan-8-yl)propan-2-yl)-2-phenylcyclopropane-carboxamide 2,2,2-trifluoroacetate]
IC50 (PLD2 [1]; [5]): > 20000 nM
IC50 (PLD1 [2]; [6]): 3000 nM

C[C@@H](CN1CCC2(CC1)C(=O)NC[C@@H]2c1ccc(F)cc1)NC(=O)C#Cc1ccccc1 [NGF, N—((S)-1-((R)-4-(4-Fluorophenyl)-1-oxo-2,8-diazaspiro[4.5]decan-8-yl)propan-2-yl)-3-phenylpropiolamide 2,2,2-trifluoroacetate]
IC50 (PLD2 [1]): 150 nM
IC50 (PLD1 [2]; [6]): 16 nM

C[C@@H](CN1CCC2(CC1)C(=O)NC[C@H]2c1ccc(F)cc1)NC(=O)C#Cc1ccccc1 [NJ5, N-((S)-1-((S)-4-(4-fluorophenyl)-1-oxo-2,8-diazaspiro[4.5]decan-8-yl)propan-2-yl)-3-phenylpropiolamide 2,2,2-trifluoroacetate]
IC50 (PLD2 [1]): 4000 nM
IC50 (PLD1 [2]; [6]): 320 nM

O=C(NCCN1CCC2(CC1)C(=O)NC[C@H]2c1ccc(F)cc1)c1ccc2ccccc2c1.O=C(O)C(F)(F)F [P1D]
IC50 (PLD2 [1]; [5]): 220 nM
Fold Selective (PLD2 [1]): 17-Fol PLD2 fold
IC50 (PLD1 [2]; [6]): 3700 nM

C[C@@H](CN1CCC2(CC1)C(=O)NC[C@H]2c1ccc(F)cc1)NC(=O)c1cc2ccccc2[nH]1 [NG3, N-((S)-1-((S)-4-(4-fluorophenyl)-1-oxo-2,8-diazaspiro[4.5]decan-8-yl)propan-2-yl)-1H-indole-2-carboxamide 2,2,2-trifluoroacetate]
IC50 (PLD2 [1]): 140 nM
IC50 (PLD1 [2]; [6]): 16 nM

O=C(C#Cc1ccccc1)NCCN1CCC2(CC1)C(=O)NC[C@@H]2c1ccc(F)cc1.O=C(O)C(F)(F)F [P0Q, (R)-N-(2-(4-(4-fluorophenyl)-1-oxo-2,8-diazaspiro[4.5]decan-8-yl)ethyl)-3-phenylpropiolamide 2,2,2-trifluoroacetate]
IC50 (PLD2 [1]): 70 nM
Fold Selective (PLD2 [1]): 17-fold PLD2
IC50 (PLD1 [2]): 1200 nM

4-fluoro-N-((S)-1- ((S)-4-(4- fluorophenyl)-1-oxo- 2,8- diazaspiro[4.5]decan- 8-yl)propan-2- yl)benzamide 2,2,2- trifluoroacetate [P2B]
IC50 (PLD2 [3]; [7]): 9440 nM
IC50 (PLD2 [1]; [5]): 2800 nM
IC50 (PLD1 [4]): 5150 nM
IC50 (PLD1 [2]; [6]): 1700 nM

O=C(NCCN1CCC2(CC1)C(=O)NC[C@@H]2c1ccc(F)cc1)C1C[C@H]1c1ccccc1.O=C(O)C(F)(F)F (stereo partly drawn) [P1E, trans-N-(2-((R)-4-(4-fluorophenyl)-1-oxo-2,8-diazaspiro[4.5]decan-8-yl)ethyl)-2-phenylcyclopropane-carboxamide 2,2,2-trifluoroacetate]
IC50 (PLD2 [1]; [5]): 760 nM
Fold Selective (PLD2 [1]): 8-fold PLD2
IC50 (PLD1 [2]; [6]): 6100 nM

C[C@@H](CN1CCC2(CC1)C(=O)NC[C@@H]2c1ccc(F)cc1)NC(=O)c1ccc(F)cc1 [NGH, 4-fluoro-N-((S)-1-((R)-4-(4-fluorophenyl)-1-oxo-2,8-diazaspiro[4.5]deean-8-yl)propan-2-yl)benzamide 2,2,2-txifluoroacetate]
IC50 (PLD2 [3]): 2240 nM
IC50 (PLD2 [1]): 210 nM
IC50 (PLD1 [2]): 250 nM

C[C@@H](CN1CCC2(CC1)C(=O)NC[C@H]2c1ccc(F)cc1)NC(=O)c1ccc2ccccc2c1 [P1Q, N-((S)-1-((S)-4-(4-fluorophenyl)-1-oxo-2,8-diazaspiro[4.5]decan-8-yl)propan-2-yl)-2-naphthamide 2,2,2-trifluoroacetate]
IC50 (PLD2 [1]; [5]): 540 nM
IC50 (PLD1 [2]; [6]): 93 nM

O=C(NCCN1CCC2(CC1)C(=O)NC[C@@H]2c1ccc(F)cc1)c1cc2ccccc2[nH]1.O=C(O)C(F)(F)F [P23, (R)-N-(2-(4-(4-fluorophenyl)-1-oxo-2,8-diazaspiro[4.5]decan-8-yl)ethyl)-1H-indole-2-carboxamide 2,2,2-trifluoroacetate]
IC50 (PLD2 [1]): 2.5 nM
Fold Selective (PLD2 [1]): 8 fold PLD2
IC50 (PLD1 [2]): 21 nM
